Assay results taken from patent US10029996B2, “Class of cyano-substituted asymmetric cyanine dyes, synthesizing method and application thereof” (DALIAN UNIVERSITY OF TECHNOLOGY, priority 2013, dated 2018).

Tests used:
CT DNA [1] = experiment: Absorption and fluorescence emission spectra in the absence and presence of DNA in buffer; type: physicochemical; conditions: 2 μM in Tris-HCl buffer, absence and presence of saturated CT DNA; for maximum emission wavelength: excitation 550 nm
Description: 2 μM solutions of compounds C, D, and E in Tris-HCl (10 mM, pH=7.4, same below) buffer were be added into the cuvettes and determined its absorption respectively. The exited wavelength of the fluorescence spectra was 550 nm for all compounds. A saturated amount of CT DNA was added into the above solution, then the solution was determined its absorption respectively. The exited wavelength of the fluorescence spectra was 550 nm for all compounds. The equipments used are a UV-Vis spectrophotometer (Hp8453) and a spectrofluorophotometer (PTI-700). FIGS. 2, 3, and 4 are the absorption and fluorescence emission spectra of compounds C, D, and E in the absence and presence of DNA respectively in buffer solution respectively. […] Therefore, in confocal fluorescence image tests of compounds, the exited wavelength is selected 559 nm and the collected emission wavelength was 575-625 nm.

living cells = experiment: MTT cytotoxicity assay in living cells; type: cell-based; conditions: 6 h, serial concentrations 0, 1, 3, 5 μM
Description: The Compounds C, D, E and reference compound M1 at serial concentrations (0, 1, 3, and 5 μM) were added to cells counted in a confocal microscope dish for 6 h. Then MTT tetrazolium solution (100 μL of 0.5 mg/ml in PBS) was added to each well, and the cells further incubated for 2 h. Excess MTT tetrazolium solution was then carefully removed and the colored formazan was dissolved in dimethyl sulfoxide (DMSO). The absorbance was measured at 490 nm using a microplate reader to measure the toxicity of compound.

CT DNA [2] = experiment: Fluorescence quantum yield in the presence of DNA; type: physicochemical; conditions: 1 μM in Tris-HCl buffer, saturated DNA; Rhodamine B as standard; mean of triplicate
Description: A saturated amount of CT DNA was added into the 1 μM compound C solution in Tris-HCl buffer to keep a maximum absorbance less than 0.1 as determined by a UV-Vis Spectrophotometer. Fluorescence intensities are measured at selected excitation wavelengths of 545 nm, 550 nm and 555 nm, respectively. For each compound, the determination is made in triplicate, the fluorescence quantum yield of each determination is calculated, and the mean value is taken. Using Rhodamine B as the standard (ΦF=0.97, methanol, 15° C.), the calculated fluorescence quantum yields in buffer solution of compound C in the presence of DNA is 0.73. The equipments used are a UV-Vis spectrophotometer (Hp8453) and a spectrofluorophotometer (PTI-700).
A saturated amount of DNA was added into the 1 μM reference compound M1 solution in Tris-HCl buffer to keep a maximum absorbance less than 0.1 as determined by a UV-Vis Spectrophotometer. Fluorescence intensities are measured at selected excitation wavelengths of 585 nm, 590 nm and 595 nm, respectively. For each compound, the determination is made in triplicate, the fluorescence quantum yield of each determination is calculated, and the mean value is taken. Using Rhodamine B as the standard (ΦF=0.97, methanol, 15° C.), the calculated fluorescence quantum yields in buffer solution of reference compound M1 in the presence of DNA is 0.16. […]

[3] = Photofading under iodine-tungsten lamp irradiation in Tris-HCl buffer; type: physicochemical; conditions: 5×10^−6 M in Tris-HCl 10 mM pH 7.4; 500 W iodine-tungsten lamp, 20 cm; after 6 h of radiation
Description: 5×10^−6M solutions of compounds C, D, E and reference compound M1 in Tris-HCl (10 mM, pH=7.4, same below) buffer were be sealed into the cuvettes respectively. To absorb short wavelength light (<400 nm), a trap of glass containing 50 g/L NaNO2 was set up between the cells and the lamp. In the other hand, NaNO2 solution can be used as a cold trap to keep the sample at room temperature. After the absorption of samples were monitored, solutions of the samples were irradiated with a 500 W iodine-tungsten lamp. The distance between the cells and the lamp was 20 cm. The irreversible bleaching of the dyes at the absorption peak was monitored as a function of time at 1 hour intervals. The equipment used is a UV-Vis spectrophotometer Lambda 8453.

MCF7 cells [4] = experiment: Fluorescence imaging of live cells stained with dye; type: cell-based, human; conditions: 45 min, compound D 2 μM, M1 3 μM, confocal microscopy
Description: MCF7 cells (human breast adenocarcinoma cell line) were cultured in DEME medium supplemented with 10% fetal bovine serum at 37° C. in an atmosphere containing 5% CO2 for 24 h. For live cell imaging, compound D (2 μM) or reference compound M1 (3 μM) was added to cells for 45 min and washed with PBS (phosphate-buffered saline) three times. After replacement of the medium, cells were imaged using a confocal fluorescence microscope. […] The confocal laser scanning microscope is Olympus FV1000.

MCF7 cells [5] = experiment: Colocalization fluorescence imaging with commercial nucleic acid stain SYTO9; type: cell-based, human; conditions: compound E 2.0 μM 45 min after SYTO9 3.0 μM 45 min; λex=559 nm, λem=575-625 nm
Description: The cells were cultured as shown example 10, were first cultured with 3.0 μM of available commercial nucleic acid stain SYTO9 for 45 min, and then washed with PBS three times. Cells were then incubated with compound E (2.0 μM) for 45 min, and then washed with PBS three times. After replacement of DEME medium, cells were imaged using confocal fluorescence microscope.
FIG. 6a is the fluorescence image of SYTO 9 (λex=488 nm, λem=500 nm to 550 nm) and FIG. 6b is the fluorescence image of compound E (λex=559 nm, λem=575 nm to 625 nm). […] The equipment used is an Olympus FV1000 confocal laser scanning microscope.

CT DNA [6] = conditions: methanol, 15° C.; cited from earlier work

maximum absorption wavelength (CT DNA [1]) | maximum emission wavelength (CT DNA [1]) | SMILES | cytotoxicity in high concentration relative to M1 (living cells) | cytotoxicity in low concentrations (living cells) | fluorescence quantum yield in the presence of DNA (CT DNA [2]) | optical density remaining after radiation (photostability) [3] | staining pattern in live cells (MCF7 cells [4]) | subcellular regions stained (colocalization with SYTO9) (MCF7 cells [5]) | fluorescence quantum yield of standard (ΦF) (CT DNA [6])
about 545 nm | about 610 nm | CN1/C(=C(C#N)\C=C\c2cc[n+](CCO)c3ccccc23)Sc2cc(Cl)ccc21.Cl [Compound D] | less cytotoxic than reference compound M1 | low cytotoxicity |  | 90% | clear nucleolar staining as well as faint nucleus staining |  | 
about 545 nm | about 610 nm | C=CCCN1/C(=C(C#N)\C=C\c2cc[n+](CC)c3cc(OC)ccc23)Sc2ccccc21.[I-] [Compound E] |  |  |  | 90% |  | nucleus and nucleolus | 
 |  | CC[n+]1ccc(/C=C/C=C2/Sc3ccccc3N2C)c2ccccc21.[I-] [Compound M1, reference compound] |  | low cytotoxicity | 0.16 | ~0% | clear nucleolar staining as well as faint nucleus staining |  | 
 |  | CCN(CC)c1ccc2c(-c3ccccc3C(=O)O)c3ccc(=[N+](CC)CC)cc-3oc2c1.[Cl-] [Rhodamine B] |  |  |  |  |  |  | 0.97

SMILES | maximum absorption wavelength (CT DNA [1]) | maximum emission wavelength (CT DNA [1]) | cytotoxicity in high concentration relative to M1 (living cells) | cytotoxicity in low concentrations (living cells) | fluorescence quantum yield in the presence of DNA (CT DNA [2]) | optical density remaining after radiation (photostability) [3] | staining pattern in live cells (MCF7 cells [4]) | subcellular regions stained (colocalization with SYTO9) (MCF7 cells [5]) | fluorescence quantum yield of standard (ΦF) (CT DNA [6])
CC[n+]1ccc(/C=C/C(C#N)=C2/Sc3ccccc3N2C)c2ccccc21.[I-] [Compound C] | about 545 nm | about 610 nm | less cytotoxic than reference compound M1 | low cytotoxicity | 0.73 | 90% |  |  | 
